Results from patent publication EP1094724B1, “USE OF A PHENOL OXIDISING ENZYME IN THE TREATMENT OF TOBACCO” (priority 1998, dated 2000).

Biological target: T1, Trametes villosa laccase (TvL) (Trametes villosa, UniProt Q99044)
T1 construct: purchased Novo Nordisk A/S
T1 sequence (Q99044 22-520): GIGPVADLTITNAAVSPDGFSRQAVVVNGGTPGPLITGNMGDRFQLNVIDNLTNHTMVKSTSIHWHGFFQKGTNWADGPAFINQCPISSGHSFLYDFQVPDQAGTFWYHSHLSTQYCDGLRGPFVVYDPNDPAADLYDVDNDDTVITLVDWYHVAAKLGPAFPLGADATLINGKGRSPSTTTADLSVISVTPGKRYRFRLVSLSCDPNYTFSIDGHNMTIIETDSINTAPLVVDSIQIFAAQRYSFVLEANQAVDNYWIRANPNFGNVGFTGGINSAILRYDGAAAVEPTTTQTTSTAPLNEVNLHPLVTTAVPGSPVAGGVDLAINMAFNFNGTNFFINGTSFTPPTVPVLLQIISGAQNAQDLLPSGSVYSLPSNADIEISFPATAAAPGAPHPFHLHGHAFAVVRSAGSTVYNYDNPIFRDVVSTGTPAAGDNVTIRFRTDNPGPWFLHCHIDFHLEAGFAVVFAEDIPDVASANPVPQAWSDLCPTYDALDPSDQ
Assay: Laccase TvL treatment of tobacco extract, HPLC analysis of phenolic compounds (peak area)
Format: biochemical
Conditions: for % Remaining (peak area) after various treatment times: intensive, submerse aeration; for % Remaining (peak area) after 75 minutes / % Remaining (peak area) after 240 minutes: 1.6 µg/ml TvL, ambient temperature (approximately 20°C); for % Remaining (peak area) after 75 minutes / % Remaining (peak area) after 240 minutes / reduction in the area of the peaks (HPLC) following enzyme treatment: surface aeration; for reduction in the area of the peaks (HPLC) following enzyme treatment: tobacco extract, approximately 1.6 µg/ml TvL, pH 5.5 and 55°C
Protocol: The content of phenolic compounds is analysed by HPLC according to the procedure described below: • Liquid chromatographic system: E.g. Shimadzu SCL-6B System Controller, and two LC-6A Liquid Chromatograph (pumps) or Waters model 600 E • Injector: Shimadzu SIL 6B Autoinjector or Waters 715 Ultra Wisp. UV detector: Shimadzu SPD-6A Photodiode Array UV-VIS detector or Waters Model 481 • Software: CLASS LC10 / CLASS-MXA or Maxima 820 • Column: Supelcosil™ LC-18 25 cm x 4.6 mm (Supelco, #5-8298) or µ Bondapack C198 stainless steel column, 30 cm x 4 mm i.d., 10 µm particle size. • Guard column: none or Guard-Pak from Waters packed with the same material. • Temperature: Ambient • Mobile phase flow: 1.3 ml/min • Injection volume: 20µl • Wavelength: 350 nm • Eluent: Binary gradient (linear) mixture of A: KH2PO4 (28.4 g in 2000 ml de-mineralised water) and B: methanol (please see table 1 and figure 1). The eluent is filtered through a 0.45 µm filter and degassed before use.
Prior to HPLC analysis, the samples were filtered through a 0.45 µm filter or smaller, e.g. a sterile Sartorius Minisart 0.45 µm filter (#16555) or a Millipore Millex-GS 0.22 µm (#SBGS 0 25 SB) to remove the haze/precipitate normally formed during enzyme treatment. Normally, no dilution of the extract/sample was made before HPLC analysis.
For qualitative and semi-quantitative measurements, each of the standards was dissolved in 96% ethanol, and then mixed in a ratio and at a concentration which was within the range in the tobacco extract. For semi-quantification of the phenolic compounds in the tobacco extract, and as a measure of development in concentration of the various compounds contained in the extract, decrease in peak area relative to the peak area before addition of enzyme was used. As a measure of overall efficiency of the process, degree of reduction in total peak area of all peaks (not only the major ones) in the HPLC chromatogram with retention time Rt>3 min was used (named: "All peaks").
Unless otherwise indicated, the tobacco was extracted at a laboratory scale with water according to the following procedure: 1000 ml demineralised water is heated to 45°C. 30 g tobacco (approx. 25 g d.m.) is added and the mixture stirred by a magnetic bar and occasionally with a stick. After 15 minutes the tobacco residue is separated from the tobacco extract by vacuum filtration (Whatman glass micro fibre GF/F 11 cm). The filtered extract is then vacuum filtered at least once more or until it is completely clear. Yield was around 900 ml tobacco extract. […] No buffer was thus included in any of the trials. D.m. content of the extract was approximately 2.1%.
Tobacco extract (typically 50-100 ml) was poured into a glass beaker and a magnetic bar was added. No pH adjustments were made, and no buffer was added. The tobacco extract was heated to and controlled at 55°C during the entire enzyme treatment by means of a heating plate and a thermostat. Intensive submerse aeration was applied by blowing atmospheric air into the extract by means of a metal sinter (metal suction filter normally used for HPLC). The enzyme in question (TvL or PpL) was added to the desired concentration. Shortly after addition of laccase, the colour of the tobacco extract turned dark brown to black, and with time the liquor became turbid and a precipitate formed. The liquor was sampled with intervals for HPLC analysis.
Enzyme treatment: Surface aeration was used. TvL enzyme was added to the tobacco extract to a concentration of approximately 1.6 µg/ml. […] HPLC chromatograms of the tobacco extract before, during, and after enzyme treatment as well as chromatograms of the mixture of HPLC standards are shown in figure 6, 7, ,8, and 9.
Enzyme treatment: pH of the extract was adjusted with H2SO4 or NaOH to pH 4, pH 5, pH 6, or pH 7. The extract was kept at ambient temperature (approximately 20°C) during the entire enzyme treatment. Surface aeration was used. […]

[1] = 40 Min, approximately 1.6 µg/ml TvL at 55°C and pH 5.4
[2] = 40 Min, approximately 7.8µg/ml TvL at 55°C and pH 5.4
[3] = 80 Min, approximately 1.6 µg/ml TvL at 55°C and pH 5.4
[4] = 120 Min, approximately 1.6 µg/ml TvL at 55°C and pH 5.4

Row | Structure (SMILES) | % Remaining (peak area) after various treatment times [1] | % Remaining (peak area) after various treatment times [2] | % Remaining (peak area) after various treatment times [3] | % Remaining (peak area) after various treatment times [4] | % Remaining (peak area) after 75 minutes (pH 4) | % Remaining (peak area) after 240 minutes (pH 4) | % Remaining (peak area) after 75 minutes (pH 5) | % Remaining (peak area) after 240 minutes (pH 5) | % Remaining (peak area) after 75 minutes (pH 6) | % Remaining (peak area) after 240 minutes (pH 6) | % Remaining (peak area) after 75 minutes (pH 7) | % Remaining (peak area) after 240 minutes (pH 7) | reduction in the area of the peaks (HPLC) following enzyme treatment
1 | O=C(C=Cc1ccc(O)c(O)c1)OC1CC(O)(C(=O)O)CC(O)C1O (centres unmarked) [CA, 3-[[3-(3,4-Dihydroxyphenyl)-1-oxo-2-propenyl]oxy]1,4,5-trihydroxycyclohexanecarboxylic acid] | 23% | 0% | 0% | 0% | 5% | 0% | 11% | 0% | 22% | 0% | 94% | 85% | significant reduction
2 | COc1cc2ccc(=O)oc2cc1O [S, 7-Hydroxy-6-methoxy-2H-1-benzopyran-2-one] | 82% | 3% | 30% | 12% | 89% | 58% | 94% | 12% | 96% | 6% | 100% | 112% | significant reduction
